# Patent US20170165286A1, “COMPOSITIONS AND METHODS FOR TREATING DIABETES AND LIVER DISEASES” (Cempra Pharmaceuticals, Inc., priority 2014, published 2017)
# “Also recorded” adds a separate entry of the source.
# Tests used:
# [1] = system: STAM mice; test: STAM model: Sirius red staining, fibrosis area; type: in vivo; details: for Sirius red-positive area (% of area showing fibrosis): STAM mice liver
# Method: (§1) NASH-HCC (STAM™) Model. C57BL/6 (15-day-pregnant female) mice are obtained from Charles River Laboratories Japan (Kanagawa, Japan). Male pups are selected for the study. NASH is induced in male mice by a single subcutaneous injection of 200 μg streptozotocin (STZ, Sigma-Aldrich, USA) solution 2 days after birth, followed by feeding a HFD (57 kcal % fat, cat#: HFD32, CLEA Japan, Japan) beginning at 4 weeks of age. At 5 weeks of age, mice are divided into a control group and one or more treated group (generally 8 mice per group). Animals are sacrificed at 9 weeks of age, and biochemical, histological, and gene expression analyses are performed.
# (§2) During weeks 5-9 (starting at day 35±2), test compound is administered (generally orally) at various doses diluted to 10 mL/kg and according to various dosing protocols to treatment groups (8 mice each) while a second group (8 mice) is administered vehicle only. Animals are sacrificed at 9 weeks.
# To visualize collagen deposition (a measure of fibrosis), Bouin's fixed left lateral liver sections are stained using picro-Sirius red solution (Waldeck, Germany).
# For quantitative analysis of fibrosis area, bright field images of Sirius red-stained sections are captured around the central vein using a digital camera (DFC280; Leica, Germany) at 200-fold magnification, and the positive areas in 5 fields/section are measured using ImageJ software (National Institute of Health, USA). For quantitative analysis of inflammation area, bright field images of F4/80-immunostained sections are captured around the central vein using a digital camera (DFC280; Leica, Germany) at 200-fold magnification, and the positive areas in 5 fields/section are measured using ImageJ software (National Institute of Health, USA).
# (§3) Illustrative dose response test groups. Group 1-Normal. Eight normal mice are fed with a normal diet ad libitum without any treatment until 9 weeks of age. Group 2-Vehicle. Eight NASH mice are orally administered vehicle (0.5% w/v methylcellulose+0.2% Tween®80) in a volume of 10 mL/kg twice daily from 5 to 9 week of age. Group 3-solithromycin 5 mg/kg. Eight NASH mice are orally administered vehicle supplemented with solithromycin at a dose of 5 mg/kg in the morning and the vehicle in the evening (5 mg/kg/day) from 5 to 9 weeks of age. Group 4-solithromycin 10 mg/kg. Eight NASH mice are orally administered vehicle supplemented with solithromycin at a dose of 10 mg/kg twice daily (20 mg/kg/day) from 5 to 9 weeks of age. Group 5-solithromycin 25 mg/kg. Eight NASH mice are orally administered vehicle supplemented with solithromycin at a dose of 25 mg/kg twice daily (50 mg/kg/day) from 5 to 9 weeks of age. Group 6-solithromycin 50 mg/kg. Eight NASH mice are orally administered vehicle supplemented with solithromycin at a dose of 50 mg/kg once daily (50 mg/kg/day) from 5 to 9 weeks of age.
# [2] = system: liver mRNA expression levels; test: STAM model: quantitative RT-PCR of liver; type: in vivo, mice
# Method: as §1, §2, §3
# Quantitative RT-PCR. Total RNA is extracted from liver samples using RNAiso (Takara Bio, Japan) according to the manufacturer's instructions. One μg of RNA is reverse-transcribed using a reaction mixture containing 4.4 mM MgCl2 (Roche, Switzerland), 40 U RNase inhibitor (Toyobo, Japan), 0.5 mM dNTP (Promega, USA), 6.28 μM random hexamer (Promega), 5× first strand buffer (Promega), 10 mM dithiothreitol (Invitrogen) and 200 U MMLV-RT (Invitrogen) in a final volume of 20 μL. The reaction is carried out for 1 hour at 37° C., followed by 5 minutes at 99° C. Real-time PCR is performed using real-time PCR DICE and SYBR premix Taq (Takara Bio). To calculate the relative mRNA expression level, the expression of each gene is normalized to that of reference gene 36B4 (gene symbol: Rplp0). PCR-primer sets are described in copending U.S. provisional application No. 62/086,911, the disclosure of which is incorporated herein by reference.
# [3] = STAM mice liver, 5 mg/kg, listed as SOLI
# [4] = STAM mice liver, 10 mg/kg, listed as SOLI
# [5] = STAM mice liver, 25 mg/kg, listed as SOLI
structure (smiles),measurement,setting,value
CC[C@H]1OC(=O)[C@@](C)(F)C(=O)[C@H](C)[C@@H](O[C@@H]2O[C@H](C)C[C@H](N(C)C)[C@H]2O)[C@](C)(OC)C[C@@H](C)C(=O)[C@H](C)[C@H]2N(CCCCn3cc(-c4cccc(N)c4)nn3)C(=O)O[C@]12C [solithromycin],Sirius red-positive area (% of area showing fibrosis),[1]; 5 mg/kg,no statistically significant differences
same,Sirius red-positive area (% of area showing fibrosis),"[1]; 5 mg/kg, listed as SOLI",0.85 ± 0.28%
same,Sirius red-positive area (% of area showing fibrosis),[1]; 10 mg/kg,tended to decrease
same,Sirius red-positive area (% of area showing fibrosis),"[1]; 10 mg/kg, listed as SOLI",0.72 ± 0.27%
same,Sirius red-positive area (% of area showing fibrosis),[1]; 25 mg/kg,significantly decreased; also recorded: Statistically significant reduced fibrosis
same,Sirius red-positive area (% of area showing fibrosis),"[1]; 25 mg/kg, listed as SOLI",0.65 ± 0.27 %
same,Fibrosis area (Sirius red-positive area) compared to vehicle group,"[1]; STAM mice, Group 6 (50 mg/kg q.d.)",significantly decreased
same,Col1a2/36B4 relative mRNA expression,"[2]; STAM mice liver, 5 mg/kg",3.6 ± 1.7
same,FBPase/36B4 relative mRNA expression,"[2]; STAM mice liver, 5 mg/kg",1.2 ± 0.2
same,G6pc/36B4 relative mRNA expression,"[2]; STAM mice liver, 5 mg/kg",3.0 ± 0.7
same,Gck/36B4 relative mRNA expression,"[2]; STAM mice liver, 5 mg/kg",0.5 ± 0.2
same,Glut 2/36B4 relative mRNA expression,"[2]; STAM mice liver, 5 mg/kg",0.8 ± 0.1
same,MCP-1/36B4 relative mRNA expression,"[2]; STAM mice liver, 5 mg/kg",no statistically significant differences
same,MMP-9/36B4 relative mRNA expression,"[2]; STAM mice liver, 5 mg/kg",no statistically significant differences
same,Pck1/36B4 relative mRNA expression,"[2]; STAM mice liver, 5 mg/kg",1.5 ± 0.1
same,TGF-β/36B4 relative mRNA expression,"[2]; STAM mice liver, 5 mg/kg",2.1 ± 0.4
same,TNF-α/36B4 relative mRNA expression,"[2]; STAM mice liver, 5 mg/kg",3.1 ± 1.2
same,Timp-1/36B4 relative mRNA expression,"[2]; STAM mice liver, 5 mg/kg",16.0 ± 15.7
same,α-SMA/36B4 relative mRNA expression,"[2]; STAM mice liver, 5 mg/kg",3.8 ± 1.9
same,MCP-1/36B4 relative mRNA expression,[2]; [3],7.2 ± 4.0
same,MMP-9/36B4 relative mRNA expression,[2]; [3],2.9 ± 0.8
same,Col1a2/36B4 relative mRNA expression,"[2]; STAM mice liver, 10 mg/kg",2.8 ± 1.0
same,FBPase/36B4 relative mRNA expression,"[2]; STAM mice liver, 10 mg/kg",1.2 ± 0.2
same,G6pc/36B4 relative mRNA expression,"[2]; STAM mice liver, 10 mg/kg",2.4 ± 0.5
same,Gck/36B4 relative mRNA expression,"[2]; STAM mice liver, 10 mg/kg",0.4 ± 0.2
same,Glut 2/36B4 relative mRNA expression,"[2]; STAM mice liver, 10 mg/kg",tended to down-regulated
same,MCP-1/36B4 relative mRNA expression,"[2]; STAM mice liver, 10 mg/kg",no statistically significant differences
same,MMP-9/36B4 relative mRNA expression,"[2]; STAM mice liver, 10 mg/kg",no statistically significant differences
same,Pck1/36B4 relative mRNA expression,"[2]; STAM mice liver, 10 mg/kg",1.5 ± 0.4
same,TGF-β/36B4 relative mRNA expression,"[2]; STAM mice liver, 10 mg/kg",1.8 ± 0.4
same,TNF-α/36B4 relative mRNA expression,"[2]; STAM mice liver, 10 mg/kg",3.0 ± 0.7
same,Timp-1/36B4 relative mRNA expression,"[2]; STAM mice liver, 10 mg/kg",11.9 ± 6.8
same,α-SMA/36B4 relative mRNA expression,"[2]; STAM mice liver, 10 mg/kg",3.7 ± 1.0
same,Glut 2/36B4 relative mRNA expression,[2]; [4],0.8 ± 0.1
same,MCP-1/36B4 relative mRNA expression,[2]; [4],5.2 ± 1.9
same,MMP-9/36B4 relative mRNA expression,[2]; [4],3.0 ± 1.1
same,Col1a2/36B4 relative mRNA expression,"[2]; STAM mice liver, 25 mg/kg",2.9 ± 1.2
same,FBPase/36B4 relative mRNA expression,"[2]; STAM mice liver, 25 mg/kg",Statistically significant reduced
same,G6pc/36B4 relative mRNA expression,"[2]; STAM mice liver, 25 mg/kg",Statistically significant reduced
same,Gck/36B4 relative mRNA expression,"[2]; STAM mice liver, 25 mg/kg",0.6 ± 0.4
same,Glut 2/36B4 relative mRNA expression,"[2]; STAM mice liver, 25 mg/kg",0.9 ± 0.1
same,MCP-1/36B4 relative mRNA expression,"[2]; STAM mice liver, 25 mg/kg",no statistically significant differences
same,MMP-9/36B4 relative mRNA expression,"[2]; STAM mice liver, 25 mg/kg",no statistically significant differences
same,Pck1/36B4 relative mRNA expression,"[2]; STAM mice liver, 25 mg/kg",1.3 ± 0.6
same,TGF-β/36B4 relative mRNA expression,"[2]; STAM mice liver, 25 mg/kg",1.8 ± 0.5
same,TNF-α/36B4 relative mRNA expression,"[2]; STAM mice liver, 25 mg/kg",3.4 ± 1.3
same,Timp-1/36B4 relative mRNA expression,"[2]; STAM mice liver, 25 mg/kg",11.0 ± 8.6
same,α-SMA/36B4 relative mRNA expression,"[2]; STAM mice liver, 25 mg/kg",3.3 ± 1.2
same,FBPase/36B4 relative mRNA expression,[2]; [5],1.0 ± 0.2
same,G6pc/36B4 relative mRNA expression,[2]; [5],1.9 ± 0.7
same,MCP-1/36B4 relative mRNA expression,[2]; [5],4.9 ± 1.9
same,MMP-9/36B4 relative mRNA expression,[2]; [5],2.6 ± 0.5
same,FBPase mRNA expression levels compared to vehicle group,"[2]; STAM mice liver, all doses",significantly down-regulated
same,G6pc mRNA expression levels compared to vehicle group,"[2]; STAM mice liver, all doses",significantly down-regulated
same,Collagen Type 1 mRNA expression levels compared to vehicle group,"[2]; STAM mice liver, any doses",no significant differences
same,Gck mRNA expression levels compared to vehicle group,"[2]; STAM mice liver, any doses",no significant differences
same,Pck1 mRNA expression levels compared to vehicle group,"[2]; STAM mice liver, any doses",no significant differences
same,TGF-β mRNA expression levels compared to vehicle group,"[2]; STAM mice liver, any doses",no significant differences
same,TIMP-1 mRNA expression levels compared to vehicle group,"[2]; STAM mice liver, any doses",no significant differences
same,TNF-α mRNA expression levels compared to vehicle group,"[2]; STAM mice liver, any doses",no significant differences
same,α-SMA mRNA expression levels compared to vehicle group,"[2]; STAM mice liver, any doses",no significant differences
same,Glut 2 mRNA expression levels compared to vehicle group,"[2]; STAM mice liver, solithromycin groups other than 10 mg/kg",no significant differences
same,MMP-9 mRNA expression levels in the liver,"[2]; STAM mice, 50 mg/kg q.d., normalized vehicle 1.00±0.34",0.59±0.25
same,MCP-1 mRNA expression levels in the liver,"[2]; STAM mice, 50 mg/kg q.d., normalized vehicle 1.00±0.42",0.64±0.14
